# Test results: patent EP0329225A2, “Acetylenic esters” (MERCK & CO. INC., priority 1988, dated 1989)
# Target: T1, Acetoacetyl-coenzyme A thiolase (Rattus norvegicus, UniProt Q5XI22)
# T1 construct: prepared from the livers of Sprague Dawley rats treated in the diet for one week with 0.075% lovastatin to induce the enzyme; from tissue; host or cells: liver of Sprague Dawley rats fed lovastatin
# Assay: Acetoacetyl-coenzyme A thiolase inhibition (coupled spectrophotometric assay, NADH oxidation at 340 nm)
# Assay type: biochemical, Sprague Dawley rats
# Conditions: not given
# Description: Acetoacetyl-coenzyme A thiolase was prepared from the livers of Sprague Dawley rats treated in the diet for one week with 0.075% lovastatin to induce the enzyme. Acetoacetyl-coenzyme A thiolase was purified through the DEAE-cellulose step essentially as described by Mehrabian et al., J. Biol. Chem., 261, 16249-16255 (1986), but modified slightly by carrying out the 30-50% ammonium sulfate precipitation of the enzyme and a dialysis before the DEAE-cellulose step. The 0.06 M eluate described by Mahrabian et al. contained the acetoacetyl-coenzyme A thiolase. The isolate was concentrated by ammonium sulfate precipitation, dissolved in the buffer used for elution, and stored at -70°C.
# Inhibition of acetoacetyl coenzyme A thiolase was measured by coupling the formation of acetoacetyl-coenzyme A to its subsequent reduction of β-hydroxybutyryl-coenzyme A dehydrogenase to β-hydroxybutyryl-coenzyme A and monitoring the resultant oxidation of NADH with a spectrophotometer set at 340 nm. Mixtures of 0.016 units of β-hydroxybutyryl-coenzyme A dehydrogenase, 16.2 µg of acetoacetyl coenzyme A thiolase, and test quantities of the test compounds dissolved in dimethyl sulfoxide and water to bring to final volume were incubated with 71.4 mM Tris-HCl (pH 7.5). 0.71 mM EDTA, 10.7 mM magnesium chloride, 0.53 mM dithiothreitol, 0.21 mM NADH (total volume of 0.140 ml) until a stable base line was obtained. Reaction was initiated by addition of 10 µl of acetoacetyl-coenzyme A, giving a concentration of 2.85 mM. Reaction was measured at room temperature for a time period necessary to produce a measurable reaction rate. An IC₅₀, the concentration that inhibits 50% of the acetoacetyl-coenzyme A thiolase activity, was determined for each test compound. The IC₅₀'s for representative compounds of this invention are listed in Table I. The IC₅₀ of 5-(1-hydroxy-2,4,6-heptatriynyl)-2-oxo-1,3-dioxolane-4-heptanoic acid has been reported as 1 x 10⁻⁸ M. See U.S. Patent Application Serial No. 07/053,973, filed May 26, 1987.
# T1 sequence (Q5XI22 whole entry): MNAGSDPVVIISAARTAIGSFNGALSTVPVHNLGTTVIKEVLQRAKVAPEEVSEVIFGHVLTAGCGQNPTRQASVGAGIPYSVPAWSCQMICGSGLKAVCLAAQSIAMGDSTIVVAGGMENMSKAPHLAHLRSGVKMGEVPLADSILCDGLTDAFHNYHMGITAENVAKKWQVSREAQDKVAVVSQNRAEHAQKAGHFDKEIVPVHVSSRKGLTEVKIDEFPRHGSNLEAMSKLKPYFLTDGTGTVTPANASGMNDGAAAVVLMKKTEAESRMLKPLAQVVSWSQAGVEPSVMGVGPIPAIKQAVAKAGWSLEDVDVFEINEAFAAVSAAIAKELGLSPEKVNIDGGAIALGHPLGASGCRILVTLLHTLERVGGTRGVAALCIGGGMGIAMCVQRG
row,SMILES,IC50 [µM]
1,"COC(=O)CCCCCCCCC(O)C#CC#CC#C[Si](C)(C)C (stereo not drawn) [Ex. 3, 10-Hydroxy-16-(trimethylsilyl)-11,13,15-hexadecatriynoic acid, methyl ester]",0.017
2,"COC(=O)CCCCCCCCC(O)C#CC#C[Si](C)(C)C (stereo not drawn) [Ex. 5, 10-Hydroxy-14-(trimethylsilyl)-11,13-tetradecadiynoic acid, methyl ester]",> 62

# Same assay, conditions: enzyme from livers of lovastatin-treated rats; room temperature, pH 7.5; read-out: IC₅₀
row,IC50 [µM],SMILES
1,38,"C#CC#CC#C[C@@H](O)[C@@H](O)[C@@H](O)CCCCCCC(=O)OC [Ex. 2, 8(S),9(S),10(R)-Trihydroxy-11,13,15-hexadecatriynoic acid, methyl ester]"
2,0.024,"C#CC#CC#CC(O)CCCCCCCCC(=O)OC (stereo not drawn) [Ex. 4, 10-Hydroxy-11,13,15-hexadecatriynoic acid, methyl ester]"
3,26,"C#CC#CC(O)CCCCCCCCC(=O)OC (stereo not drawn) [Ex. 6, 10-Hydroxy-11,13-tetradecadiynoic acid, methyl ester]"
4,0.15,"C#CC#CC#C[C@@H](O)[C@@H](O)[C@@H](O)CCCCCCC(=O)O [Ex. 1, 8(S),9(S),10(R)-Trihydroxy-11,13,15-hexadecatriynoic acid]"
